Test results reported in patent US8637499B2, “Benzoxazepines as inhibitors of PI3K/mTOR and methods of their use and manufacture” (Exelixis, Inc., priority 2009, dated 2014).

Key:
mTORC1 (mTOR/GbL/Raptor) = mTORC1 (mTOR/GbL/Raptor) (Homo sapiens, UniProt P42345); test: mTOR/GbL/Raptor (mTORC1) ELISA Assay; type: biochemical; conditions: 0.2 nM mTORC1, 10 μM ATP, 50 nM NHis-tagged 4E-BP1; phosphorylation of 4E-BP1; read-out: IC50
In short: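 mTORC1 (0.2 nM) phosphorylated NHis-tagged 4E-BP1 (50 nM) with 10 μM ATP in 20 mM Hepes pH 7.2, 10 mM MnCl2, for 120 min at ambient temperature. Product was captured on Ni-chelate plates and detected with anti-phospho-4E-BP1 plus HRP secondary antibody by chemiluminescence.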

PI3Kα = PI3Kα (Homo sapiens, UniProt P42336); test: PI3K Biochemical Assays (ATP consumption, luciferase-luciferin chemiluminescence); conditions: PI3Kα 1.5 nM, ATP 1 μM, PIP2 10 μM; percent of ATP consumed
In short: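 Kinase activity read as percent ATP consumed via luciferase-luciferin chemiluminescence. 1.5 nM enzyme, 1 μM ATP, 10 μM PIP2 in 50 mM Tris pH 7.5, 1 mM EGTA, 10 mM MgCl2, 1 mM DTT, 0.03% CHAPS; ~2 h at ambient temperature, ATP consumption kept to 40-60%.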

Chain of PI3Kα (P42336 whole entry): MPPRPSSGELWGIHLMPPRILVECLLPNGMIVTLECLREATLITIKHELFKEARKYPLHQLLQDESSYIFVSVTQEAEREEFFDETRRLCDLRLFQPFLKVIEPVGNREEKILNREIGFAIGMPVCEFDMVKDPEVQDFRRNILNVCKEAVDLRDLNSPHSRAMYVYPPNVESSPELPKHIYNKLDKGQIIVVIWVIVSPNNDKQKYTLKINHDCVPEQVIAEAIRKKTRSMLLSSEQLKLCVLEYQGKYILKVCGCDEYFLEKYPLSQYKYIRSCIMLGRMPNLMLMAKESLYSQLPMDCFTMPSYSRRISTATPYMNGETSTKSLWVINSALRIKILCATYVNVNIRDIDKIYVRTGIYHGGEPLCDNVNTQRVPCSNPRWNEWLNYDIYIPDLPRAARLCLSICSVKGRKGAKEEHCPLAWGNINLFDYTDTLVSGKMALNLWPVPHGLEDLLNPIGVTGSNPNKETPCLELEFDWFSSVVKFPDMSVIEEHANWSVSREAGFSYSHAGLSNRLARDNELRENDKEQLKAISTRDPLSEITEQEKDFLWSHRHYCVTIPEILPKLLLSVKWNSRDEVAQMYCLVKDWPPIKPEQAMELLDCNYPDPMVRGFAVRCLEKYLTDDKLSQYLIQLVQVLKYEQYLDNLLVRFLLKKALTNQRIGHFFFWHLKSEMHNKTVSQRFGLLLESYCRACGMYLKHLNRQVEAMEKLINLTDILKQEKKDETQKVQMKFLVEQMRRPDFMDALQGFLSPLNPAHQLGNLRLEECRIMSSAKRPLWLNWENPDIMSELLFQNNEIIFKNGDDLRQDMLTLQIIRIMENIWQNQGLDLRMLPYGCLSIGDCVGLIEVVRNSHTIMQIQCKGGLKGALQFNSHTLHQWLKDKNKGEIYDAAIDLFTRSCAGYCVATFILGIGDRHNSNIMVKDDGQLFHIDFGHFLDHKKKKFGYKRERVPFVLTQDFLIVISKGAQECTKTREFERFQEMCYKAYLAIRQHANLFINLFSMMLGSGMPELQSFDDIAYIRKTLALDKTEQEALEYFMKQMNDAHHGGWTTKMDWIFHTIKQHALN
Chain of PI3Kα (P27986 whole entry partner): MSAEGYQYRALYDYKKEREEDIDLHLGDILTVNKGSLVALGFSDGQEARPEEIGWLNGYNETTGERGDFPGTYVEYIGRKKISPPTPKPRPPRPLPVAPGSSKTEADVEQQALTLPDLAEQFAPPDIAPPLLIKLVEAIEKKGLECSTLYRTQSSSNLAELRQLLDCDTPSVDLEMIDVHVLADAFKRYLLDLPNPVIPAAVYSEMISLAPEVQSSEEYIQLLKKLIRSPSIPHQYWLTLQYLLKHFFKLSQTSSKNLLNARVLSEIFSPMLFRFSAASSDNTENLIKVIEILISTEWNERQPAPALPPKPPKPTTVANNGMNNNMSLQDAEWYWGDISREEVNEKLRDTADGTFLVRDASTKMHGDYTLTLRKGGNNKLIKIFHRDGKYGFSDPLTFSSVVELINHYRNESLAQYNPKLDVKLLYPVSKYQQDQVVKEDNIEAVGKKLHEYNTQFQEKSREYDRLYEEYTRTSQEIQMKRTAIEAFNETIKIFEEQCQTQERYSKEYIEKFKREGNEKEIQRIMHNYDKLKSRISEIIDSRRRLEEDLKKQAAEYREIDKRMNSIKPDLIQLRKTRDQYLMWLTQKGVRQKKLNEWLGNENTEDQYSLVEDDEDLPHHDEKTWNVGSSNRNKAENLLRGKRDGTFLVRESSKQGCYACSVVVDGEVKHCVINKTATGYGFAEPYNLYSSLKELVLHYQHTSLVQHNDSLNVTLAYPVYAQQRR

Row | IC50 (mTORC1 (mTOR/GbL/Raptor)) [nM] | IC50 (PI3Kα) [nM] | SMILES
1 | ≤ 50 | 75 to 200 | Cc1nc2ccc(-c3ccc4c(c3)CN(C(=O)N3CCCCC3c3ccc(F)c(Cl)c3)CCO4)cc2[nH]1 (stereo not drawn) [Compound 128, 4-{[2-(3-chloro-4-fluorophenyl)piperidin-1-yl]carbonyl}-7-(2-methyl-1H-benzimidazol-6-yl)-2,3,4,5-tetrahydro-1,4-benzoxazepine]
2 | ≤ 50 | ≤ 75 | COC(=O)Nc1nc2ncc(-c3ccc4c(c3)CN(C(=O)N3CCC(C)CC3)CCO4)cc2[nH]1 [Compound 41, methyl (6-{4-[(4-methylpiperidin-1-yl)carbonyl]-2,3,4,5-tetrahydro-1,4-benzoxazepin-7-yl}-1H-imidazo[4,5-b]pyridin-2-yl)carbamate]
3 | ≤ 50 | ≤ 75 | Nc1nc2ncc(-c3ccc4c(c3)CN(C(=O)N3[C@@H]5CC[C@H]3C[C@](O)(C(F)(F)F)C5)CCO4)cc2[nH]1 [Compound 49, 8-{[7-(2-amino-1H-imidazo[4,5-b]pyridin-6-yl)-2,3-dihydro-1,4-benzoxazepin-4(5H)-yl]carbonyl}-3-(trifluoromethyl)-8-azabicyclo[3.2.1]octan-3-(endo)-ol]
4 | ≤ 50 | ≤ 75 | Nc1nc2ncc(-c3ccc4c(c3)CN(C(=O)N3CCC(=O)CC3c3cccc(F)c3)CCO4)cc2[nH]1 (stereo not drawn) [Compound 48, 1-{[7-(2-amino-1H-imidazo[4,5-b]pyridin-6-yl)-2,3-dihydro-1,4-benzoxazepin-4(5H)-yl]carbonyl}-2-(3-fluorophenyl)piperidin-4-one]
5 | 50 to 250 | 1000 to 3000 | Cc1nc2ccc(-c3ccc4c(c3)CN(C(=O)N(Cc3ccccc3)C(C)C)CCO4)cc2[nH]1 [Compound 103, 7-(2-methyl-1H-benzimidazol-6-yl)-N-(1-methylethyl)-N-(phenylmethyl)-2,3-dihydro-1,4-benzoxazepine-4(5H)-carboxamide]
6 | 250 to 700 | 1000 to 3000 | Cc1cccc(CN(C)C(=O)N2CCOc3ccc(-c4ccc5nc(C)[nH]c5c4)cc3C2)c1 [Compound 153, N-methyl-7-(2-methyl-1H-benzimidazol-6-yl)-N-[(3-methylphenyl)methyl]-2,3-dihydro-1,4-benzoxazepine-4(5H)-carboxamide]
7 | 250 to 700 | 1000 to 3000 | Cc1nc2ccc(-c3ccc4c(c3)CN(C(=O)N3CCN(c5ccccc5)CC3c3ccccc3)CCO4)cc2[nH]1 (stereo not drawn) [Compound 145, 4-[(2,4-diphenylpiperazin-1-yl)carbonyl]-7-(2-methyl-1H-benzimidazol-6-yl)-2,3,4,5-tetrahydro-1,4-benzoxazepine]
8 | ≤ 50 | ≤ 75 | COC(=O)Nc1nc2ncc(-c3ccc4c(c3)CN(C(=O)N3CCC(C(C)(F)F)CC3)CCO4)cc2[nH]1 [Compound 34, methyl [6-(4-{[4-(1,1-difluoroethyl)piperidin-1-yl]carbonyl}-2,3,4,5-tetrahydro-1,4-benzoxazepin-7-yl)-1H-imidazo[4,5-b]pyridin-2-yl]carbamate]
9 | 250 to 700 | 200 to 500 | Cc1nc2ccc(-c3ccc4c(c3)CN(C(=O)N3CCN(c5cnccn5)CC3)CCO4)cc2[nH]1 [Compound 161, 7-(2-methyl-1H-benzimidazol-6-yl)-4-[(4-pyrazin-2-ylpiperazin-1-yl)carbonyl]-2,3,4,5-tetrahydro-1,4-benzoxazepine]
10 | ≤ 50 | ≤ 75 | O=C1CCN(C(=O)N2CCOc3ccc(-c4ccc(-c5ncc[nH]5)cc4)cc3C2)C(c2ccc(F)c(F)c2)C1 (stereo not drawn) [Compound 53, 2-(3,4-difluorophenyl)-1-({7-[4-(1H-imidazol-2-yl)phenyl]-2,3-dihydro-1,4-benzoxazepin-4(5H)-yl}carbonyl)piperidin-4-one]
11 | 250 to 700 | 500 to 1000 | CC(=O)Nc1nc2ccc(-c3ccc4c(c3)CN(C(=O)N3CCC(CF)CC3)CCO4)cc2[nH]1 [Compound 50, N-[5-(4-{[4-(fluoromethyl)piperidin-1-yl]carbonyl}-2,3,4,5-tetrahydro-1,4-benzoxazepin-7-yl)-1H-benzimidazol-2-yl]acetamide]
12 | ≤ 50 | ≤ 75 | Cc1nc2ccc(-c3ccc4c(c3)CN(C(=O)N3CCCCC3c3ccc(F)c(F)c3)CCO4)cc2[nH]1 (stereo not drawn) [Compound 114, 4-{[2-(3,4-difluorophenyl)piperidin-1-yl]carbonyl}-7-(2-methyl-1H-benzimidazol-6-yl)-2,3,4,5-tetrahydro-1,4-benzoxazepine]
13 | ≤ 50 | 75 to 200 | CC1(O)CCN(C(=O)N2CCOc3ccc(-c4ccc5nc(N)[nH]c5c4)cc3C2)CC1 [Compound 23, 1-{[7-(2-amino-1H-benzimidazol-6-yl)-2,3-dihydro-1,4-benzoxazepin-4(5H)-yl]carbonyl}-4-methylpiperidin-4-ol]
14 | ≤ 50 | ≤ 75 | Cc1nc2ccc(-c3ccc4c(c3)CN(C(=O)N3CCCC[C@@H]3c3ccccc3)CCO4)cc2[nH]1 [Compound 66, 7-(2-methyl-1H-benzimidazol-6-yl)-4-{[(2R)-2-phenylpiperidin-l-yl]carbonyl}-2,3,4,5-tetrahydro-1,4-benzoxazepine]
15 | ≤ 50 | ≤ 75 | O=C(N1CCOc2ccc(-c3ccc(-c4ncc[nH]4)cc3)cc2C1)N1[C@@H]2CC[C@H]1C[C@](O)(C(F)(F)F)C2 [Compound 59, 8-({7-[4-(1H-imidazol-2-yl)phenyl]-2,3-dihydro-1,4-benzoxazepin-4(5H)-yl}carbonyl)-3-(trifluoromethyl)-8-azabicyclo[3.2.1]octan-3-(endo)-ol]
16 | 250 to 700 | 1000 to 3000 | Cc1nc2ccc(-c3ccc4c(c3)CN(C(=O)N3CCCC(Cc5ccccc5)C3)CCO4)cc2[nH]1 (stereo not drawn) [Compound 106, 7-(2-methyl-1H-benzimidazol-6-yl)-4-{[3-(phenylmethyl)piperidin-1-yl]carbonyl}-2,3,4,5-tetrahydro-1,4-benzoxazepine]
17 | ≤ 50 | 200 to 500 | Cc1nc2ccc(-c3ccc4c(c3)CN(C(=O)N3CCC(O)(c5ccc(F)cc5)CC3)CCO4)cc2[nH]1 [Compound 142, 4-(4-fluorophenyl)-1-{[7-(2-methyl-1H-benzimidazol-6-yl)-2,3-dihydro-1,4-benzoxazepin-4(5H)-yl]carbonyl}piperidin-4-ol]
18 | 250 to 700 | 1000 to 3000 | Cc1nc2ccc(-c3ccc4c(c3)CN(C(=O)N3CCC(O)CC3)CCO4)cc2[nH]1 [Compound 68, 1-{[7-(2-methyl-1H-benzimidazol-6-yl)-2,3-dihydro-1,4-benzoxazepin-4(5H)-yl]carbonyl}piperidin-4-ol]
19 | ≤ 50 | 75 to 200 | Nc1nc2ccc(-c3ccc4c(c3)CN(C(=O)N3CCC(=O)CC3c3ccc(F)c(F)c3)CCO4)cc2[nH]1 (stereo not drawn) [Compound 27, 1-{[7-(2-amino-1H-benzimidazol-6-yl)-2,3-dihydro-1,4-benzoxazepin-4(5H)-yl]carbonyl}-2-(3,4-difluorophenyl)piperidin-4-one]
20 | 700 to 2600 | 1000 to 3000 | Cc1ccc(OCC2CN(C(=O)N3CCOc4ccc(-c5ccc6nc(C)[nH]c6c5)cc4C3)CCO2)cc1 (stereo not drawn) [Compound 154, 7-(2-methyl-1H-benzimidazol-6-yl)-4-[(2-{[(4-methylphenyl)oxy]methyl}morpholin-4-yl)carbonyl]-2,3,4,5-tetrahydro-1,4-benzoxazepine]
21 | 50 to 250 | 200 to 500 | COC(=O)Nc1nc2ccc(-c3ccc4c(c3)CN(C(=O)N3CCC(C)CC3)CCO4)cc2[nH]1 [Compound 2, methyl (6-{4-[(4-methylpiperidin-1-yl)carbonyl]-2,3,4,5-tetrahydro-1,4-benzoxazepin-7-yl}-1H-benzimidazol-2-yl)carbamate]
22 | ≤ 50 | ≤ 75 | CC(F)(F)C1CCN(C(=O)N2CCOc3ccc(-c4cnc5nc(N)[nH]c5c4)cc3C2)CC1 [Compound 42, 6-(4-{[4-(1,1-difluoroethyl)piperidin-1-yl]carbonyl}-2,3,4,5-tetrahydro-1,4-benzoxazepin-7-yl)-1H-imidazo[4,5-b]pyridin-2-amine]
23 | 50 to 250 | 1000 to 3000 | Cc1nc2ccc(-c3ccc4c(c3)CN(C(=O)N3CCC(C(C)(C)O)CC3)CCO4)cc2[nH]1 [Compound 139, 2-(1-{[7-(2-methyl-1H-benzimidazol-6-yl)-2,3-dihydro-1,4-benzoxazepin-4(5H)-yl]carbonyl}piperidin-4-yl)propan-2-ol]
24 | ≤ 50 | ≤ 75 | O=C1CCN(C(=O)N2CCOc3ccc(-c4ccc(-c5ncc[nH]5)cc4)cc3C2)C(c2ccc(F)cc2)C1 (stereo not drawn) [Compound 54, 2-(4-fluorophenyl)-1-({7-[4-(1H-imidazol-2-yl)phenyl]-2,3-dihydro-1,4-benzoxazepin-4(5H)-yl}carbonyl)piperidin-4-one]
25 | ≤ 50 | 75 to 200 | Nc1nc2ccc(-c3ccc4c(c3)CN(C(=O)N3CCC(=O)CC3c3cccc(F)c3)CCO4)cc2[nH]1 (stereo not drawn) [Compound 28, 1-{[7-(2-amino-1H-benzimidazol-6-yl)-2,3-dihydro-1,4-benzoxazepin-4(5H)-yl]carbonyl}-2-(3-fluorophenyl)piperidin-4-one]
26 | 50 to 250 | 200 to 500 | Cc1nc2ccc(-c3ccc4c(c3)CN(C(=O)N3CC=C(c5ccccc5)CC3)CCO4)cc2[nH]1 [Compound 157, 7-(2-methyl-1H-benzimidazol-6-yl)-4-[(4-phenyl-3,6-dihydropyridin-1(2H)-yl)carbonyl]-2,3,4,5-tetrahydro-1,4-benzoxazepine]
27 | ≤ 50 | ≤ 75 | CC1CCN(C(=O)N2CCOc3ccc(-c4ccc(-c5ncc[nH]5)cc4)cc3C2)CC1 [Compound 60, 7-[4-(1H-imidazol-2-yl)phenyl]-4-[(4-methylpiperidin-1-yl)carbonyl]-2,3,4,5-tetrahydro-1,4-benzoxazepine]
